The text below walks through data of patent US8461160B2, “Dihydropyrimidinones” (Hoffmann-La Roche, Inc., priority 2009, dated 2013).

This assay addresses T1, BACE2 (Homo sapiens, UniProt Q9Y5Z0).
T1 construct: BACE2 enzyme ectodomain (derived from plasmid “pET17b-T7-hu proBACE2”) was prepared as described in Ostermann et al; T7 tag (N); made in house
T1 sequence (Q9Y5Z0 21-473 limits assumed): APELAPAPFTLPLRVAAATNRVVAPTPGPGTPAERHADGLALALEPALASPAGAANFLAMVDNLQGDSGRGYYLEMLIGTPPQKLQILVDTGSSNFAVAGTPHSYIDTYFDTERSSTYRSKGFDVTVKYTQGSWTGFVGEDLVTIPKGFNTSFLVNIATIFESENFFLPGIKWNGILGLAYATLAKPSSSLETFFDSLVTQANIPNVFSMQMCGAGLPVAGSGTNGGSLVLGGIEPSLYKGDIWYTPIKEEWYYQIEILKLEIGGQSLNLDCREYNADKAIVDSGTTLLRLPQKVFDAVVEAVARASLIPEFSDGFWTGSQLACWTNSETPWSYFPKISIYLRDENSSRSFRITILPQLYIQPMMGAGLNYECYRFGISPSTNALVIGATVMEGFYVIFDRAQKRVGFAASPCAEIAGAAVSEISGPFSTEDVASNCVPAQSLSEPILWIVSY
Nature of the assay: Fluorescent-peptide cleavage assay for BACE2 inhibition. The format is biochemical. As to conditions: BACE2 enzyme ectodomain, fluorescent peptide WS EVNLD AEFRC-MR121, assay buffer pH 4.5, room temperature. The procedure, abridged: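 Pro-enzyme BACE2 was activated at 80 nM for 1 h at room temperature in 100 mM Na-acetate, 20 mM EDTA, 0.05% BSA, pH 4.5, then preincubated 10 min with compound. IC50 from sigmoidal dose-response fit.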

Consider `Cc1nc(C(=O)Nc2cccc([C@]3(C)CC(=O)N(C)C(N)=N3)c2)cs1` [Example 67, 2-Methyl-thiazole-4-carboxylic acid [3-((S)-2-amino-1,4-dimethyl-6-oxo-1,4,5,6-tetrahydro-pyrimidin-4-yl)-phenyl]-amide], for which the concentration for half-maximal inhibition (IC50) was 160 nM.

For the compound `CCC[C@@]1(c2cccc(NC(=O)c3coc(C)n3)c2)CC(=O)N(C)C(N)=N1` [Example 90, 2-Methyl-oxazole-4-carboxylic acid [3-((S)-2-amino-1-methyl-6-oxo-4-propyl-1,4,5,6-tetrahydro-pyrimidin-4-yl)-phenyl]-amide], the 50% inhibitory concentration (IC50) was determined as 1110 nM.

Turning to `CN1C(=O)C[C@@](C)(c2cccc(NC(=O)c3ncc(Cl)cc3Cl)c2)N=C1N` [Example 64, 3,5-Dichloro-pyridine-2-carboxylic acid [3-((S)-2-amino-1,4-dimethyl-6-oxo-1,4,5,6-tetrahydro-pyrimidin-4-yl)-phenyl]-amide], the midpoint of inhibition, the IC50, lay at 60 nM.

`CN1C(=O)C[C@@](C)(c2cccc(NC(=O)c3ncc(Cl)cn3)c2)N=C1N` [Example 20, 5-Chloro-pyrimidine-2-carboxylic acid [3-((S)-2-amino-1,4-dimethyl-6-oxo-1,4,5,6-tetrahydro-pyrimidin-4-yl)-phenyl]amide] registered a half-inhibitory concentration (IC50) of 6 nM. This IC50 is about 10-fold lower than that of the compound before.

`COc1ccc(C(=O)Nc2cccc([C@]3(C)CC(=O)N(C)C(N)=N3)c2)nc1` [Example 14, 5-Methoxy-pyridine-2-carboxylic acid [3-((S)-2-amino-1,4-dimethyl-6-oxo-1,4,5,6-tetrahydro-pyrimidin-4-yl)-phenyl]-amide] gave an IC50 of 25 nM.

`CN1C(=O)C(C)(C)[C@@](C)(c2cc(NC(=O)c3ncoc3-c3ccccc3)ccc2F)N=C1N` [Example 109, 5-Phenyl-oxazole-4-carboxylic acid [3-((S)-2-amino-1,4,5,5-tetramethyl-6-oxo-1,4,5,6-tetrahydro-pyrimidin-4-yl)-4-fluoro-phenyl]amide] registered a half-inhibitory concentration (IC50) of 170 nM.

Compound `CCC[C@@]1(c2cccc(NC(=O)c3ccn(C)n3)c2)CC(=O)N(C)C(N)=N1` [Example 89, 1-Methyl-1H-pyrazole-3-carboxylic acid [3-((S)-2-amino-1-methyl-6-oxo-4-propyl-1,4,5,6-tetrahydro-pyrimidin-4-yl)-phenyl]-amide] showed an IC50 of 4750 nM.

For the compound `CN1C(=O)C[C@]2(CCc3ccc(NC(=O)c4ccc(OCC(F)(F)F)cn4)cc32)N=C1N` [Example 129, N-[(1S)-2′-amino-1′-methyl-6′-oxo-2,3,5′,6′-tetrahydro-1′H-spiro[indene-1,4′-pyrimidin]-6-yl]-5-(2,2,2-trifluoro-ethoxy)-pyridine-2-carboxamide], the 50% inhibitory concentration (IC50) stood at 220 nM.

Compound `CN1C(=O)C[C@]2(CCc3ccc(NC(=O)c4ccc(Cl)cn4)cc32)N=C1N` [Example 127, N-[(1S)-2′-amino-1′-methyl-6′-oxo-2,3,5′,6′-tetrahydro-1′H-spiro[indene-1,4′-pyrimidin]-6-yl]-5-chloropyridine-2-carboxamide] displayed an IC50 of 160 nM.

In turn, `CC[C@@]1(c2cccc(NC(=O)c3ccc(Cl)s3)c2)CC(=O)N(C)C(N)=N1` [Example 41, 5-Chloro-thiophene-2-carboxylic acid [3-((S)-2-amino-4-ethyl-1-methyl-6-oxo-1,4,5,6-tetrahydro-pyrimidin-4-yl)-phenyl]-amide] came in with an IC50 of 95 nM. Compared with the last compound, the IC50 is about 1.7-fold lower.

The compound `CN1C(=O)C[C@@](C)(c2cccc(NC(=O)c3cnc(Cl)cn3)c2)N=C1N` [Example 25, 5-Chloro-pyrazine-2-carboxylic acid [3-((S)-2-amino-1,4-dimethyl-6-oxo-1,4,5,6-tetrahydro-pyrimidin-4-yl)-phenyl]-amide] had a 50% inhibitory concentration (IC50) of 10 nM.

As to `COc1cccnc1C(=O)Nc1cccc([C@@]2(C)N=C(N)N(C)C(=O)C2(C)C)c1` [Example 93, 3-Methoxy-pyridine-2-carboxylic acid [3-((R)-2-amino-1,4,5,5-tetramethyl-6-oxo-1,4,5,6-tetrahydro-pyrimidin-4-yl)-phenyl]amide], the IC50 is 158 nM.

In turn, `Cc1cc(C(=O)Nc2cccc([C@]3(C)CC(=O)N(C)C(N)=N3)c2)no1` [Example 82, 5-Methyl-isoxazole-3-carboxylic acid [3-((S)-2-amino-1,4-dimethyl-6-oxo-1,4,5,6-tetrahydro-pyrimidin-4-yl)-phenyl]-amide] yielded a 50% inhibitory concentration (IC50) of 590 nM.

`Cc1cc(Cl)cnc1C(=O)Nc1cccc([C@@]2(C)N=C(N)N(C)C(=O)C2(C)C)c1` [Example 95, 5-Chloro-3-methyl-pyridine-2-carboxylic acid [3-((R)-2-amino-1,4,5,5-tetramethyl-6-oxo-1,4,5,6-tetrahydro-pyrimidin-4-yl)-phenyl]amide] returned a half-maximal inhibitory concentration (IC50) of 19 nM.

`CN1C(=O)C(C)(C)[C@@](C)(c2cc(NC(=O)c3ccc(F)cn3)ccc2F)N=C1N` [Example 114, 5-Fluoro-pyridine-2-carboxylic acid [3-((S)-2-amino-1,4,5,5-tetramethyl-6-oxo-1,4,5,6-tetrahydro-pyrimidin-4-yl)-4-fluoro-phenyl]amide] had an IC50 of 43 nM.

Turning to `Cc1cncc(C(=O)Nc2cccc([C@]3(C)CC(=O)N(C)C(N)=N3)c2)n1` [Example 24, 6-Methyl-pyrazine-2-carboxylic acid [3-((S)-2-amino-1,4-dimethyl-6-oxo-1,4,5,6-tetrahydro-pyrimidin-4-yl)-phenyl]amide], inhibition was half-maximal at 217 nM (IC50).

In turn, `Cc1cc(Cl)cnc1C(=O)Nc1cccc([C@]2(C)CC(=O)N(C)C(N)=N2)c1` [Example 75, 5-Chloro-3-methyl-pyridine-2-carboxylic acid [3-((S)-2-amino-1,4-dimethyl-6-oxo-1,4,5,6-tetrahydro-pyrimidin-4-yl)-phenyl]-amide] returned an IC50 of 17 nM.

The compound `CN1C(=O)C[C@@](C)(c2cccc(NC(=O)c3ccccc3)c2)N=C1N` [Example 34, N-[3-((S)-2-Amino-1,4-dimethyl-6-oxo-1,4,5,6-tetrahydro-pyrimidin-4-yl)-phenyl]-benzamide] yielded an IC50 of 200 nM.

Take `CN1C(=O)C(C)(C)[C@@](C)(c2cc(NC(=O)c3ncccc3F)ccc2F)N=C1N` [Example 108, 3-Fluoro-pyridine-2-carboxylic acid [3-((S)-2-amino-1,4,5,5-tetramethyl-6-oxo-1,4,5,6-tetrahydro-pyrimidin-4-yl)-4-fluoro-phenyl]amide]: the 50% inhibitory concentration (IC50) stood at 28 nM.

Turning to `Cc1cnc(C(=O)Nc2cccc([C@]3(C)CC(=O)N(C)C(N)=N3)c2)cn1` [Example 22, 5-Methyl-pyrazine-2-carboxylic acid [3-((S)-2-amino-1,4-dimethyl-6-oxo-1,4,5,6-tetrahydro-pyrimidin-4-yl)-phenyl]amide], the concentration for half-maximal inhibition (IC50) was 123 nM.

`C[C@@]1(c2cccc(NC(=O)c3ccc(Cl)cn3)c2)CC(=O)N(CC2CC2)C(N)=N1` [Example 124, 5-Chloro-pyridine-2-carboxylic acid [3-((S)-2-amino-1-cyclopropylmethyl-4-methyl-6-oxo-1,4,5,6-tetrahydro-pyrimidin-4-yl)-phenyl]amide] came in with a 50% inhibitory concentration (IC50) of 42 nM.

In the case of `CN1C(=O)C[C@@](C)(c2cccc(NC(=O)c3cccc(Cl)n3)c2)N=C1N` [Example 31, 6-Chloro-pyridine-2-carboxylic acid [3-((S)-2-amino-1,4-dimethyl-6-oxo-1,4,5,6-tetrahydro-pyrimidin-4-yl)-phenyl]-amide], the IC50 came out at 30 nM.

As usually defined, the IC50 is the concentration that inhibits the measured activity by half. High values mean weaker potency, low ones greater potency.
